Experimental data reported in patent US20240209022A1, “NOVEL PEPTIDE HAVING ANTI-INFLAMMATORY AND TISSUE REGENERATIVE ACTIONS” (KOREA RESEARCH INSTITUTE OF BIOSCIENCE AND BIOTECHNOLOGY, priority 2020, published 2024).

Columns and labels:
[1] = test system: MIA-induced degenerative arthritis model; experiment: MIA-induced degenerative arthritis model; type: in vivo, C57BL/6J mice; conditions: vs PBS buffer group; for diameter of the knee joint: day 1 after MIA injection, i.p.
Procedure: As a degenerative arthritis model, 9-week-old specific pathogen free (SPF) male C57BL/6J mice were anesthetized, the area around the right knee joint was cleanly shaved, and 10 μL of MIA solution (monosodium iodoacetate 0.5 mg in 10 μL 0.9% sterile saline) was injected into the knee joint cavity to induce arthritis. From 3 days before MIA (monosodium iodoacetate) solution injection, Amuc_1409 or PEP001, PEP002, PEP003, PEP004, PEP005, PEP006, PEP007, PEP008, PEP009, PEP010, PEP011, PEP012, or PEP013 was dissolved in PBS buffer at a concentration of 6.7 μM and then injected into the mouse peritoneal cavity at 150 μL per animal once a day at the same time. On day 3 (0 days) after administration of Amuc_1409 or PEP001 to PEP013, an additional intraperitoneal injection was given 1 hour before MIA injection, the drug was intraperitoneally injected once a day at the same time after MIA injection, and the experiment was terminated on the 30th day after MIA injection. In the control group, the same volume of PBS buffer was injected intraperitoneally. After MIA injection, the diameter of the knee joint was measured using a caliper for 7 days at 2-day intervals (0, 1, 3, 5, and 7 days) to evaluate swelling caused by inflammatory changes of the joint. […] At this time, the weight bearing on the limb was lower as arthritis was more severe. The weight-bearing weight (g) of each of both paws was measured, and in this experiment, the value was expressed as the ratio (%) of the right hind limb with arthritis to the total hind limb. Weight bearing ratio (%)=weight-bearing weight of right hind limb with arthritis (g)/weight-bearing weight of both hind limbs (g)×100 After termination of the experiment, the test animals were sacrificed, then the knee joint tissue of the mouse was fixed with 10% neutral buffered formalin, and the bone was decalcified with a 0.5 M EDTA solution. Next, the joint tissue was embedded in paraffin to prepare a 5 μm joint section, and Safranin O staining was performed to histopathologically analyze the degree of damage to the cartilage tissue. At this time, the degree of damage to the cartilage tissue was evaluated by examining the degree of safranin O staining of the sections and scored according to OARSI (Osteoarthritis Research Society International grade) guidelines. The scoring criteria according to the OARSI guidelines are as follows (Table 1). [table]

[2] = test system: full-thickness skin defect wound-induced model; experiment: Full-thickness skin defect wound-induced model (tail); type: in vivo, C57BL/6J mice; conditions: 120 μM, 25 μL applied once a day for 28 days; vs vehicle
Procedure: In order to confirm the tissue regeneration efficacy of the novel peptides, an experiment was conducted using a wound-induced model induced by a full-thickness skin defect of mouse's tail. For a full-thickness skin defect wound-induced model, 9-week-old specific pathogen free (SPF) male C57BL/6J mice were anesthetized, and then in order to indicate full-thickness wounding, a full-thickness wound with a size of 10 mm×3 mm was made on the dorsal part of the mouse's tail, about 1.0 cm away from the base of the mouse's tail, using an aseptic dissection mass No. 10. Bleeding was stopped by compressing the wound, and the wound was covered with a film spray dressing (Cavilon, 3M). For 28 days from the day of wound induction, Amuc_1409 or PEP001 to PEP013 were each dissolved in vehicle (50% ethanol, 20% propylene glycol, 30% water) at a concentration of 120 μM and then applied to the wound site by 25 μL per animal once a day. For the control group, the same volume of vehicle (50% ethanol, 20% propylene glycol, 30% water) was applied to the wound site. The test was terminated on day 29 after wound induction. In order to observe the wound healing effect, the wound sites of animals in each test group were individually photographed using a digital camera at a constant height from the wound for 28 days at 7-day intervals from the day of wound induction, and the wound area was measured using the Image J Soft program.

[3] = test system: gastritis/gastric ulcer model; experiment: HCl/ethanol gastritis/gastric ulcer model; type: in vivo, C57BL/6J mice; conditions: vs PBS buffer group; for Cox2 expression in gastric mucosal tissue / Il-1p expression in gastric mucosal tissue / Tnfα mRNA expression in gastric mucosal tissue / iNos mRNA expression in gastric mucosal tissue: RT-qPCR; for degree of gastric mucosal damage (score): oral, 1 hour after HCl/ethanol
Procedure: For a gastritis/gastric ulcer model, 7-week-old male C57BL/6J mice were used, and from 3 days before induction, the peptides of the present invention were dissolved in PBS buffer and then orally administered to the mice by 150 μL per animal at the same time once a day. Amuc_1409 or PEP001, PEP002, PEP003, PEP004, or PEP005 was dissolved in PBS buffer at a concentration of 6.7 μM, and novel tetrapeptides PEP006, PEP007, PEP008, PEP009, and PEP010 and novel tripeptides PEP011, PEP012, and PEP013 were each dissolved in PBS buffer at a concentration of 0.15 μg/150 μL (PEP006) or 0.2 μg/150 μL (PEP007, PEP008, PEP009, PEP010, PEP011, PEP012, and PEP013). For the induction of acute gastritis/gastric ulcer, 0.3 M HCl/60% ethanol was orally administered to the mice by 0.2 mL for each, the tissue was harvested after 1 hour, photographs of the inner surface of the stomach were taken, and the degree of damage to the stomach was compared. Measurements of gastritis/gastric ulcer indexes were converted into scores according to the degree of mucosal damage. A score of 0 was given if there was no damage, a score of 1 was given to an insignificant circle-shaped hemorrhagic corrosion site of less than 5 mm, a score of 2 was given to a hemorrhagic corrosion site with a length more than 5 mm, and a score of 3 was given to one or more hemorrhagic corrosion sites corresponding to the score of 2, a score of 4 was given to a hemorrhagic corrosion of more than 5 mm in length and less than 2 mm in width, a score of 5 was given to 2 to 3 hemorrhagic corrosions corresponding to the score of 4, a score of 6 was given to 4 to 5 hemorrhagic corrosions corresponding to the score of 4, a score of 7 was given to 6 or more hemorrhagic corrosions corresponding to the score of 4, and a score of 8 was given if there was hemorrhagic corrosion throughout the gastric mucosa. In order to confirm additional anti-inflammatory activity of the administered peptides, mRNA expression of inflammation-related genes, Tnfα, Il-1β, iNos, Cox2, and Il-10, in the gastric mucosal tissue was examined.

[4] = test system: collagen induced arthritis (CIA) model; experiment: Collagen induced arthritis (CIA) rheumatoid arthritis model; type: in vivo, DBA/1J mice; conditions: vs PBS buffer group; for thickness of the ankle joint: at the end of the experiment
[5] = 2 weeks and 4 weeks after MIA injection
[6] = days 3, 5, and 7 after MIA injection

Row | Substance | weight bearing ratio [1, 5] | diameter of the knee joint [1] | thickness of the knee joint [1, 6] | wound area [2] | wound size (visually confirmed) [2] | Cox2 expression in gastric mucosal tissue [3] | Il-1p expression in gastric mucosal tissue [3] | Tnfα mRNA expression in gastric mucosal tissue [3] | iNos mRNA expression in gastric mucosal tissue [3] | degree of gastric mucosal damage (score) [3] | thickness of the ankle joint [4] | arthritis index (clinical score by date) [4] | swelling of the hind paws by macrophotography [4] | weight bearing ratio ([1]; 2 weeks after MIA injection) | weight bearing ratio ([1]; 4 weeks after MIA injection) | thickness of the knee joint ([1]; day 3 after MIA injection) | thickness of the knee joint ([1]; day 5 after MIA injection) | thickness of the knee joint ([1]; day 7 after MIA injection)
1 | AVSSI (PEP002) | significantly increased | significantly decreased | significantly decreased | significantly decreased | rapidly decreased | significantly decreased | significantly decreased | significantly decreased | significantly decreased | significantly decreased | significantly decreased | significantly decreased from day 26 after the first CII injection to the experiment end day | reduced overall |  |  |  |  | 
2 | VGAY (PEP010) |  | tended to decrease |  | significantly decreased | rapidly decreased |  |  |  |  | significantly decreased | significantly decreased | significantly decreased from day 30 after the first CII injection to the experiment end day | remarkably improved | significantly increased | significantly increased | significantly decreased | significantly decreased | significantly decreased
3 | AQS [PEP011] | significantly improved |  |  | significantly decreased | rapidly decreased |  |  |  |  | significantly decreased | significantly decreased | significantly decreased from day 30 after the first CII injection to the experiment end day | relieved overall |  |  |  |  | 
4 | AIS [PEP013] | tended to be improved |  |  | significantly decreased | rapidly decreased |  |  |  |  | significantly decreased | tended to decrease | tended to decrease | relieved overall |  |  |  |  | 
5 | GAY [PEP005] | significantly increased | tended to decrease | significantly decreased | significantly decreased | rapidly decreased | significantly decreased | significantly decreased | significantly decreased | significantly decreased | significantly decreased | significantly decreased | significantly decreased from day 28 after the first CII injection to the experiment end day | reduced overall |  |  |  |  | 
6 | AVSSIKGAY (PEP001) | significantly increased | tended to decrease | significantly decreased | significantly decreased | rapidly decreased | significantly decreased | significantly decreased | significantly decreased | significantly decreased | significantly decreased | significantly decreased | significantly decreased from day 30 after the first CII injection to the experiment end day | reduced overall |  |  |  |  | 
7 | AVS (AVSSIKGAY) [PEP004] | significantly increased | significantly decreased | significantly decreased | significantly decreased | rapidly decreased | significantly decreased | significantly decreased | significantly decreased | significantly decreased | significantly decreased | significantly decreased | significantly decreased from day 32 after the first CII injection to the experiment end day | reduced overall |  |  |  |  | 
8 | AGS [PEP012] | significantly improved |  |  |  |  |  |  |  |  | significantly decreased | significantly decreased | significantly decreased from day 32 after the first CII injection to the experiment end day | relieved overall |  |  |  |  | 
